Test results reported in patent US20050261290A1, “Novel compounds of proline and morpholine derivatives” (priority 2004, published 2005).
Read-outs that look alike come from different tables or passages of the source.

Biological target: human 11b-hsd-1 (Homo sapiens, UniProt P28845)
Assay: Inhibition constant Ki of human 11b-hsd-1 (3H-cortisone to 3H-cortisol conversion, HPLC)
Type: biochemical
Conditions: for Ki: apparent Ki, read-out: Ki app

human 11b-hsd-1, sequence (P28845 whole entry): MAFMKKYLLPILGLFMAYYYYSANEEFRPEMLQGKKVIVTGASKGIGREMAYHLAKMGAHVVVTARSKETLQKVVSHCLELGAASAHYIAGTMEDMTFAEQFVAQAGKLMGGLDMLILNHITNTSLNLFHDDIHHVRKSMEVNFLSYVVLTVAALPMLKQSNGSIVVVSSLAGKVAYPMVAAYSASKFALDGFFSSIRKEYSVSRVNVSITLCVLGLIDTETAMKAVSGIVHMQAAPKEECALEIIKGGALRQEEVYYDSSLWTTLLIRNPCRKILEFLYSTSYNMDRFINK

Structure (SMILES) | inhibition at 0.1 µM (0.1 μM compound) | Ki | Ki (human 11b-hsd-1) | inhibition at 0.1 µM (compound at 0.1 μM)
N#Cc1ccc(CN2CCC[C@@H]2C(=O)NCc2ccccc2)cc1 [Example 323] | 69.7% | 110 nM |  | 
CCCN1CCCC1(C)C(=O)NC1CCCCC1 (stereo not shown) [Example 60] |  |  | 25 nM | 79%
N#Cc1cccc(CN2CCC[C@@H]2C(=O)NC23CC4CC(CC(C4)C2)C3)c1 [Example 249] | 100% | 1 nM |  | 
N#Cc1ccccc1CN1CCC[C@@H]1C(=O)N[C@@H]1CCc2ccccc21 [Example 284] | 93.1% | 11.5 nM |  | 
O=C(NC12CC3CC(CC(C3)C1)C2)[C@H]1CSCN1Cc1ccc(Cl)cc1 [Example 202] | 100% | 4.8 nM |  | 
Cc1ccccc1CNC(=O)[C@H]1CCCN1Cc1ccc(C#N)cc1 [Example 252] | 82.6% | 52 nM |  | 
CC(C)CN1CCOC[C@@H]1C(=O)NCc1c(F)cccc1F [Example 32] |  |  |  | 67%
N#Cc1ccc(CN2CCC[C@@H]2C(=O)NCc2ccccc2Cl)cc1 [Example 253] | 100% | 24 nM |  | 
CC(C)CN1C[C@H](O)C[C@@H]1C(=O)NC1CCCCC1 [Example 29] |  |  | 39.2 nM | 69%
CN1CCC[C@@H]1C(=O)NC12CC3CC(CC(C3)C1)C2 [Example 20] |  |  | 23.3 nM | 72%
CC(C)CN1CCOC[C@@H]1C(=O)NCc1ccccc1F [Example 57] |  |  | 23.4 nM | 81%
O=C(NC1CCc2ccccc21)[C@H]1CCCN1CC1CCCC1 (stereo partly shown) [Example 39] |  |  | < 1 nM | 100%
O=C(NCc1ccc(F)cc1)[C@H]1CCCN1Cc1ccc(Cl)cc1 [Example 235] | 83.8% | 25 nM |  | 
COc1ccccc1CNC(=O)[C@H]1CCCN1CC1CCCC1 [Example 261] | 100% | 25 nM |  | 
O=C(NCc1ccc(F)cc1F)[C@H]1COCCN1Cc1ccccc1 [Example 280] | 81.6% | 49 nM |  | 
CC(C)CN1CCC[C@@H]1C(=O)N[C@H](C)c1ccc(Cl)cc1 [Example 298] | 100% | 1.77 nM |  | 
CC(C)CN1CSC[C@@H]1C(=O)N(C)C1CCCCC1 [Example 196] | 85.3% | 27 nM |  | 

Structure (SMILES) | inhibition at 0.1 µM (0.1 μM compound) | Ki | Ki (human 11b-hsd-1) | inhibition at 0.1 µM (compound at 0.1 μM)
COc1ccccc1CNC(=O)[C@H]1CCCN1CCC(F)(F)F [Example 263] | 77.5% | 62 nM |  | 
CC(C)(O)CN1CCC[C@@H]1C(=O)NC1CCCCC1 [Example 87, 1-(2-Hydroxy-2-methyl-propyl)-pyrrolidine-2-carboxylic acid cyclohexylamide] |  |  |  | 54%
CC(C)CN1CSC[C@@H]1C(=O)NC12CC3CC(CC(C3)C1)C2 [Example 208] | 100% | 1 nM |  | 
N#Cc1ccc(CN2CCOC[C@@H]2C(=O)NC2CCCCC2)cc1 [Example 306] | 100% | 4.9 nM |  | 
C[C@@H](NC(=O)[C@H]1CCCN1CC1CCCC1)c1ccccc1 [Example 292] | 92.1% | 9.59 nM |  | 
CC(C)CN1CCC[C@@H]1C(=O)NC1CCCCC1 [Example 86] |  |  | < 1 nM | 100%
CN(C(=O)[C@H]1CCCN1Cc1ccc(Cl)cc1)C1CCCCC1 [Example 191] |  |  | 28 nM | 83.7%
O=C(NCc1ccc(Cl)cc1)[C@H]1CCCN1CC1CCCC1 [Example 227] | 80.3% | 36 nM |  | 
CCCN1CCOC[C@@H]1C(=O)NCC1CCCCC1 [Example 335] | 100% | 6.9 nM |  | 
CC1(C)CC(NC(=O)C2COCCN2Cc2ccccc2)CC(C)(C)C1 (stereo not shown) [Example 186] |  |  | 1 nM | 100%
CN(C(=O)[C@H]1COCCN1CC1CCCCC1)C1CCCCC1 [Example 11, (3R)-N-cyclohexyl-4-(cyclohexylmethyl)-N-methylmorpholine-3-carboxamide] |  |  | 38.3 nM | 80%
Cc1ccc(CNC(=O)[C@H]2CCCN2CCC(F)(F)F)cc1 [Example 326] | 69.4% | 69 nM |  | 
CCC1CCCCN1C(=O)C1CCCCN1Cc1ccc(Cl)cc1 (stereo not shown) [Example 199] | 80.2% | 32 nM |  | 
CCN1CCC[C@@H]1C(=O)NC1CCCCC1C (stereo partly shown) [Example 58] |  |  | 28 nM | 70%
CCN1CCCC[C@@H]1C(=O)NC12CC3CC(CC(C3)C1)C2 [Example 12] |  |  | 14 nM | 89%
CC(C)CN1CCCCC1C(=O)NC12CC3CC(CC(C3)C1)C2 (stereo not shown) [Example 206] | 100% | 5.2 nM |  | 
CC(C)CN1CCOC[C@@H]1C(=O)NC1CCCCC1 [Example 332] | 100% | 2.2 nM |  | 

Results, then the molecule that gave them:

inhibition at 0.1 µM (0.1 μM compound) | Ki | Ki (human 11b-hsd-1) | inhibition at 0.1 µM (compound at 0.1 μM) | Structure (SMILES)
100% | 1.1 nM |  |  | O=C(NC1C2CC3CC(C2)CC1C3)[C@@H]1C[C@H](Oc2cc(F)c(F)c(F)c2)CN1 (stereo partly shown) [Example 362]
 |  | 2.1 nM | 100% | CCN1CCOC[C@@H]1C(=O)NC1C2CC3CC(C2)CC1C3 (stereo partly drawn) [Example 1, (R)-4-Ethyl-morpholine-3-carboxylic acid adamantan-2-ylamide]
 |  |  | 74% | CN1CCC(CN2CCOC[C@@H]2C(=O)NC2C3CC4CC(C3)CC2C4)CC1 (stereo partly shown) [Example 61]
100% | 1.4 nM |  |  | O=C(NC1C2CC3CC(C2)CC1C3)[C@@H]1C[C@H](Oc2ccccc2Cl)CN1 (stereo partly shown) [Example 360]
 |  | 1.4 nM | 100% | CCN1C[C@H](O)C[C@@H]1C(=O)NC1C2CC3CC(C2)CC1C3 (stereo partly shown) [Example 24]
 |  |  | 14% | CC(C)N1CCC(CN2C[C@H](O)C[C@@H]2C(=O)NC2C3CC4CC(C3)CC2C4)CC1 (stereo partly shown) [Example 76]
 |  | 2 nM | 100% | CN(C)CCN1CCC[C@@H]1C(=O)NC1C2CC3CC(C2)CC1C3 (stereo partly shown) [Example 107]
 |  |  | 38% | CN1CCC(CN2C[C@H](O)C[C@@H]2C(=O)NC2C3CC4CC(C3)CC2C4)CC1 (stereo partly drawn) [Example 47, (4R)-N-2-adamantyl-4-hydroxy-1-[(1-methylpiperidin-4-yl)methyl]-D prolinamide]
 |  |  | 71% | O=C(NC1C2CC3CC(C2)CC1C3)[C@H]1CCCN1Cc1ccn[nH]1 (stereo partly shown) [Example 126]
80.7% | 44 nM |  |  | Cc1ncccc1O[C@@H]1CN[C@H](C(=O)NC2C3CC4CC(C3)CC2C4)C1 (stereo partly shown) [Example 359]
 |  | 1 nM | 100% | O=C(NC12CC3CC(CC(C3)C1)C2)C1COCCN1Cc1ccccc1 (stereo not shown) [Example 178]
 |  |  | 100% | CCN1CCC[C@H](C(=O)NC2C3CC4CC(C3)CC2C4)C1 (stereo partly shown) [Example 124]
 |  |  | 96% | CNCCN1CCC[C@@H]1C(=O)NC1C2CC3CC(C2)CC1C3 (stereo partly shown) [Example 111]
 |  |  | 100% | O=C(NC1C2CC3CC(C2)CC1C3)[C@H]1CCCN1C[C@H]1CCCN1 (stereo partly shown) [Example 138]
 |  | 1 nM | 100% | O=C(NC1C2CC3CC(C2)CC1C3)[C@H]1COCCN1Cc1ccccn1 (stereo partly shown) [Example 67]
 |  |  | 56% | CS(=O)(=O)NCCN1CCC[C@@H]1C(=O)NC1C2CC3CC(C2)CC1C3 (stereo partly shown) [Example 130, 1-(2-Methanesulfonylamino-ethyl)pyrrolidine-2-carboxylic acid adamantan-2-ylamide]
 |  |  | 100% | COC(C)(C)CN1CCC[C@@H]1C(=O)NC1C2CC3CC(C2)CC1C3 (stereo partly shown) [Example 120]
 |  | 10 nM | 89% | O=C(NC1C2CC3CC(C2)CC1C3)[C@H]1COCCN1CCO (stereo partly shown) [Example 66]
94.9% | 15 nM |  |  | O=C(NC1C2CC3CC(C2)CC1C3)[C@H]1NCC[C@@H]1CC1CCCCC1 (stereo partly shown) [Example 366]
92% | 29.5 nM |  |  | O=C(N[C@H]1c2ccccc2C[C@H]1O)[C@H]1COCCN1CC1CCCC1 [Example 310]
 |  |  | 90% | CC(C)CN1CCC(CN2CCOC[C@@H]2C(=O)NC2C3CC4CC(C3)CC2C4)CC1 (stereo partly shown) [Example 74]
100% | 1.5 nM |  |  | N#Cc1cccc(CN2CCOC[C@@H]2C(=O)NC2C3CC4CC(C3)CC2C4)c1 (stereo partly shown) [Example 275]
 |  | 1.1 nM | 100% | N#Cc1ccc(CN2CCOC[C@@H]2C(=O)NC2C3CC4CC(C3)CC2C4)cc1 (stereo partly shown) [Example 62]
100% | 1 nM |  |  | O=C(NC1C2CC3CC(C2)CC1C3)[C@@H]1C[C@H](Oc2ccccc2)CN1 (stereo partly shown) [Example 338]
100% | 2.1 nM |  |  | CCc1ccc(O[C@@H]2CN[C@H](C(=O)NC3C4CC5CC(C4)CC3C5)C2)c(OC)c1 (stereo partly shown) [Example 354]
